Assay results published in US9334256B2, “Agents and methods for treating ischemic and other diseases” (NoNO INC., priority 2011, dated 2016).

Biological target: T1, TRPM7 (Mus musculus, UniProt Q923J1)
T1 construct: expressed in transfected cells; host or cells: HEK-293 tSA (HEK-293T) cells, transient transfection with Lipofectamine 2000
Experiment: PI uptake cell death assay in TRPM7-expressing HEK-293 cells (type of assay from Example 1)
Type: cell-based, murine
Description: The TRPM7 channel provides a pathway for mono- and divalent cations into the cell, and is unique in that it contains a functional C-terminal α-kinase domain. […] The induction of chemical anoxia in host cells such as recombinant HEK293 cells can be used to activate TRPM7. This activation is detectable with the use measurements of cellular calcium accumulation. This is achievable with the use of a fluorescent calcium indicator. Alternatively, this activation can also be measured using radiolabelled Ca2+ (^45Ca^2+) as described previously by Sattler et al. (Sattler et al., 1998) and Aarts et al. (Aarts et al., 2003).
Hoechst 33342 was purchased as a 10 mg/mL solution in water (Molecular Probes Inc., Eugene, Oreg.). Propidium iodide (PI) was purchased as a powder and prepared by dissolving in PBS at 1 mg/mL. PI solutions were stored at 4° C. until use. Hoechst and PI were added directly to cell culture to 5 μg/mL and 10 μg/mL respectively. Cells were incubated at room temperature or at 37° C. for 10 minutes to allow for adequate uptake, and fluorescence observed using a NIKON Eclipse TE2000 inverted microscope and TE-FM Epi-Fluorescence attachment (Nikon Canada).
Untransfected cells or cells transfected with the TRPM7/pTracer or ΔPDZ/pTracer construct were plated onto 24-well plates, 24-hours post-transfection. Untransfected cells were plated at 0.75×10^6 cells/well and transfected cells at 1×10^6 cells/well. The plates were coated with poly-D-lysine to strengthen cell adhesion and to minimize cell loss during washes. Cells were loaded by incubation with 5 μM fluo-3 AM and 0.02% pluronic in HBSS at 37° C. for 30 minutes. Following loading, cells were washed with an aglycaemic HBSS containing, in mM: 20 N-methyl-D-glucamine (NMDG), 121 NaCl, 5 KCl, 10 HEPES acid, 10 HEPES-Na salt, 3 NaHCO3, 1 Na-pyruvate, and 1.8 CaCl2, pH adjusted to 7.4 with HCl. Calcium uptake, as assessed by fluo-3 fluorescence, was measured in response to 0, 5, 10, 15, 20, or 25 mM sodium cyanide (NaCN; Mallinckrodt Baker Inc., Phillipsburg, N.J.) dissolved in aglycaemic HBSS. A 250 mM NaCN stock was prepared in water and stored at room temperature for up to 2 weeks. Measurements of fluo-3 fluorescence were taken over a 2 hour period at 10 minutes intervals at room temperature (22-25° C.). Calcium uptake assays were performed 48 hours post-transfection.
Cell death, as assessed by PI uptake, was examined at the end of the 2 hour calcium uptake assay. Cells were stained with 10 μg/mL PI and PI fluorescence measured using the Fluoroskan microplate reader (λ excitation=590 nm, λ emission=630 nm) and accompanying Ascent software (Thermo Electron Corp.). To obtain a reading of maximal fluorescence (Fmax), 0.5% Triton X-100 was added to each well and allowed to incubate for 20 minutes. Cell death assays were performed 48 hours post-transfection.
Data was entered into Excel (Microsoft, Seattle, Wash.) or SigmaPlot (SPSS Inc., Chicago, Ill.) for analysis. Pooled data are presented as the mean of at least 3 separate experiments±sem. Calcium uptake is expressed as a fraction of baseline uptake: ΔFt=(Ft−Fo)/Fo where Ft is the fluorescence at time t, and Fo is the fluorescence at baseline. Cell death is expressed as a percentage of total cell death: cell death (%)=Ft/Fmax×100 where Ft is the fluorescence at time t and Fmax is the maximal fluorescence obtained by permeabilization with Triton X-100. Concentration-response curves were fit by nonlinear regression with a 4 parameter logistic curve represented by the following equation: y=min+{(max−min)/[1+(x/EC50)n]} where y is the response at concentration x, min is the minimal response, max is the maximal response, EC50 is the concentration required for half-maximal response, and n is the Hill slope. Statistical analysis of data was carried out with a two-tailed Student's t test, or a one-way analysis of variance (ANOVA) followed by post hoc pairwise multiple comparisons testing using the Holm-Sidak method, where appropriate. […]

[1] = Table Y, commercially available compounds
[2] = Table X, the lower the number, the more potent in protecting against cell death
[3] = Table X, the lower the number, the more potent

T1 sequence (Q923J1 whole entry): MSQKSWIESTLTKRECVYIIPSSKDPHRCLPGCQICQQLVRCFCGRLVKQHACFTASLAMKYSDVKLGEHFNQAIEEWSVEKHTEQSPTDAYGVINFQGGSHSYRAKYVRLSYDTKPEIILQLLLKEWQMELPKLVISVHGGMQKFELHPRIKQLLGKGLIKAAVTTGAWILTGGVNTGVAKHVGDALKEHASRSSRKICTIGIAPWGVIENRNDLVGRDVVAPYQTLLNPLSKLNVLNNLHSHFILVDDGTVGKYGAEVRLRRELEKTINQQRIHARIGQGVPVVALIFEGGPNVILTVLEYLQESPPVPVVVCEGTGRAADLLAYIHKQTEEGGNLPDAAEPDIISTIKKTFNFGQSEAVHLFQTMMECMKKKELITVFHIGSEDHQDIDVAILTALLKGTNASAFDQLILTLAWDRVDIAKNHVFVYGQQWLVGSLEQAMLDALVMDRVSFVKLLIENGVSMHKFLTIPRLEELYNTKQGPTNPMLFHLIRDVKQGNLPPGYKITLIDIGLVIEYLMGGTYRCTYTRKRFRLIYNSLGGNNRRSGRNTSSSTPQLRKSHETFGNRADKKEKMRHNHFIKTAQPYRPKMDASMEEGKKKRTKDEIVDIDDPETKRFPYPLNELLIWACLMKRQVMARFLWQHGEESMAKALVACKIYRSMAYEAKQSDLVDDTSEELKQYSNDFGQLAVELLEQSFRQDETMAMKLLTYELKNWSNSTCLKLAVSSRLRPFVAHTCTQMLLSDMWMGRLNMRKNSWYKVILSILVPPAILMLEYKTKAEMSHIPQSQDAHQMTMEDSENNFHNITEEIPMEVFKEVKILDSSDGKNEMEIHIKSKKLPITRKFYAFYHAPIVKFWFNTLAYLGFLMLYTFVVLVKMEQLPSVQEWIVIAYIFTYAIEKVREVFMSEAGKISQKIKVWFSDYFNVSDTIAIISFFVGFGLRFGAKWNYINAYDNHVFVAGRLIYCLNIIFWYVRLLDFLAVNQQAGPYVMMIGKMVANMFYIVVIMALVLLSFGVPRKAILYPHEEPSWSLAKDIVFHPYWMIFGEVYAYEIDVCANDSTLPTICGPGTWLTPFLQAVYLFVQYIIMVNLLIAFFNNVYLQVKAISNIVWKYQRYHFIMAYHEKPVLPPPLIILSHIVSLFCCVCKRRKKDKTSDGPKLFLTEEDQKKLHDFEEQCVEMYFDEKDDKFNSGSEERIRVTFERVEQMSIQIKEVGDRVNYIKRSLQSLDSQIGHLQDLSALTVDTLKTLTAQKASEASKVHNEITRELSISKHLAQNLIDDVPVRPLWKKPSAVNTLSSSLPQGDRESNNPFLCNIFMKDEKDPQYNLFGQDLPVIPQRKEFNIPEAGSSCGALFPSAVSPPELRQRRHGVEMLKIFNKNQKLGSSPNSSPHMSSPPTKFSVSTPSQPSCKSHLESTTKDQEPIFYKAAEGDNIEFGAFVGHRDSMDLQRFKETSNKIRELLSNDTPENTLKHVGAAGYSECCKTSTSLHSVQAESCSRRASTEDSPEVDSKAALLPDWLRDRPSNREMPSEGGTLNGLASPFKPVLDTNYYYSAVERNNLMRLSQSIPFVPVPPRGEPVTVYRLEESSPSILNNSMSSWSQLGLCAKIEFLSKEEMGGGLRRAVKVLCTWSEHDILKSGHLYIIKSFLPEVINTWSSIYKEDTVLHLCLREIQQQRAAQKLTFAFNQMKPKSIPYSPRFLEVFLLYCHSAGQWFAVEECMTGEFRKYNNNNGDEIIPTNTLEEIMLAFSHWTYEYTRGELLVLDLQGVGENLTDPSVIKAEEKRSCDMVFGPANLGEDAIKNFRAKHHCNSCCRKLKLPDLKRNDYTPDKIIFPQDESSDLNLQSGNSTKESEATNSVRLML

Row | SMILES | Normalized ratio of PI uptake (5 μM) [1] | Normalized ratio of PI uptake (10 μM) [1] | IC50 [1] | Normalized ratio of PI uptake (5 μM) [2] | Normalized ratio of PI uptake (10 μM) [3] | IC50 (Table X)
1 | COc1ccc(-c2n[nH]cc2CN(C)Cc2cc3ccccc3s2)cc1F [Ambcb42783454 #13, reference compound] | 0.498 | 0.266 | 4.7 µM |  |  | 
2 | Cc1ccc2c(c1)CCCN2C(=O)c1sc2ccccc2c1Cl [Compound 2] |  |  |  | 0.179 | 0.018 | 3.27 µM
3 | Cc1ccc2c(c1)CCCN2C(=O)c1sc2cc(F)ccc2c1Cl [Compound 7] |  |  |  | 0.274 | 0.067 | 4.05 µM
4 | Fc1ccc2c(c1)CCN=C2c1sc2ccccc2c1Cl [Compound 42] |  |  |  | 0.304 | 0.010 | 3.99 µM
5 | Fc1ccc2c(c1)CCNC2c1sc2ccccc2c1Cl (centres unmarked) [Compound 43] |  |  |  | 0.060 | 0.020 | 2.54 µM
6 | CN1CCc2cc(F)ccc2C1c1sc2ccccc2c1Cl (centres unmarked) [Compound 44] |  |  |  | 0.336 | 0.070 | 4.25 µM
7 | Cc1ccc2c(c1)CCCN2C(=O)c1sc2ccccc2c1F [Compound 45] |  |  |  | 0.399 | 0.072 | 4.66 µM
8 | Cc1ccc2c(c1)CCCN2C(=O)c1sc2cc(C(F)(F)F)ccc2c1Cl [Compound 46] |  |  |  | 0.149 | 0.137 | 1.88 µM
9 | COc1ccc(C)c(N(Cc2ccccn2)C(=O)c2sc3ccccc3c2Cl)c1 [Compound 52] |  |  |  | 0.079 | 0.022 | 1.29 µM
10 | Cc1ccc2c(c1)CCNC2c1sc2ccccc2c1Cl (centres unmarked) [Compound 54] |  |  |  | 0.024 | 0.029 | 1.5 µM
11 | Cc1ccc2c(c1)CCN(C)C2c1sc2ccccc2c1Cl (centres unmarked) [Compound 55] |  |  |  | 0.147 | 0.059 | 2.14 µM
12 | COc1cc(OC)c2c(C)c(Cc3ccccc3)c(=O)[nH]c2c1 [Compound 56] |  |  |  | 0.255 | 0.240 | 0.43 µM
13 | Cc1ccc(N(Cc2ccccn2)C(=O)c2sc3ccccc3c2Cl)c(C)c1 [Compound 57] |  |  |  | 0.110 | 0.039 | 1.71 µM
14 | O=S(=O)(Nc1sc2ccccc2c1Cl)c1ccc(F)cc1 [Compound 64] |  |  |  | 0.154 | 0.080 | 2.87 µM
15 | COc1ccc2c(Cl)c(C3=NCCc4cc(OC)c(OC)cc43)sc2c1 [Compound 67] |  |  |  | 0.054 | 0.019 | 0.37 µM
16 | COc1ccc2sc(C3=NCCc4cc(OC)c(OC)cc43)c(Cl)c2c1 [Compound 70] |  |  |  | 0.035 | 0.013 | 0.47 µM

Row | SMILES | Normalized ratio of PI uptake (5 μM) [1] | Normalized ratio of PI uptake (10 μM) [1] | IC50 [1] | Normalized ratio of PI uptake (5 μM) [2] | Normalized ratio of PI uptake (10 μM) [3] | IC50 (Table X)
17 | COc1ccc2c(Cl)c(C3NCCc4cc(OC)c(OC)cc43)sc2c1 (centres unmarked) [Compound 71] |  |  |  | 0.005 | 0.003 | 0.42 µM
18 | COc1cc2c(cc1OC)C(c1sc3cc(C(F)(F)F)ccc3c1Cl)NCC2 (centres unmarked) [Compound 72] |  |  |  | 0.000 | 0.000 | 0.39 µM
19 | COc1cc2c(cc1OC)C(c1sc3cccc(C)c3c1Cl)NCC2 (centres unmarked) [Compound 73] |  |  |  | 0.000 | 0.000 | 0.18 µM
20 | Cc1c(Cc2cccc(Cl)c2)c(=O)oc2cc(O)cc(O)c12 [Compound 77] |  |  |  | 0.071 | 0.003 | 1.99 µM
21 | COc1cc(OC)c2c(C)c(Cc3ccc(Cl)cc3)c(=O)[nH]c2c1 [Compound 93] |  |  |  | 0.071 | 0.041 | 0.21 µM
22 | COc1cc(OC)c2c(C)c(Cc3cccc(Cl)c3)c(=O)[nH]c2c1 [Compound 94] |  |  |  | 0.073 | 0.042 | 0.65 µM
23 | Cc1ccc(N(Cc2ccncc2)C(=O)c2sc3ccccc3c2Cl)c(C)c1 [Compound 98] |  |  |  | 0.36 | 0.067 | 2.53 µM
24 | COc1ccc(C)c(N(Cc2cccc(C)n2)C(=O)c2sc3ccccc3c2Cl)c1 [Compound 102] |  |  |  | 0.206 | 0.059 | 1.61 µM
25 | COc1ccc(C)c(N(CC(=O)c2cccs2)C(=O)c2sc3ccccc3c2Cl)c1 [Compound 103] |  |  |  | 0.444 | 0.312 | 0.81 µM
26 | Cc1ccc(N(Cc2ccc3ccccc3n2)C(=O)c2sc3ccccc3c2Cl)c(C)c1 [Compound 104] |  |  |  | 0.307 | 0.094 | 0.98 µM
27 | COc1ccc(C)c(N(Cc2ccc3ccccc3n2)C(=O)c2sc3ccccc3c2Cl)c1 [Compound 105] |  |  |  | 0.07 | 0.17 | 0.86 µM
28 | Cc1ccc(N(Cc2cccnc2)C(=O)c2sc3ccccc3c2Cl)c(C)c1 [Compound 106] |  |  |  | 0 | 0.054 | 1.2 µM
29 | COc1cc2ccnc(-c3sc4ccccc4c3Cl)c2cc1OC [Compound 108] |  |  |  | 0.038 | 0.11 | 1.09 µM
30 | COc1cccc2c1CCN=C2c1sc2ccccc2c1Cl [Compound 110] |  |  |  | 0.037 | 0.06 | 1.38 µM
31 | Fc1cccc2c1CCN=C2c1sc2ccccc2c1Cl [Compound 112] |  |  |  | 0.666 | 0.244 | 
